According to ChEMBL document CHEMBL1144455, “A small molecule-kinase interaction map for clinical kinase inhibitors” (Nat Biotechnol, 2005):

How the values were obtained:
Activated CDC42 kinase 1 = Activated CDC42 kinase 1 (Homo sapiens, UniProt Q07912)
Ephrin type-B receptor 1 = target: T1, Ephrin type-B receptor 1 (Homo sapiens, UniProt P54762)
T1 sequence (P54762 whole entry): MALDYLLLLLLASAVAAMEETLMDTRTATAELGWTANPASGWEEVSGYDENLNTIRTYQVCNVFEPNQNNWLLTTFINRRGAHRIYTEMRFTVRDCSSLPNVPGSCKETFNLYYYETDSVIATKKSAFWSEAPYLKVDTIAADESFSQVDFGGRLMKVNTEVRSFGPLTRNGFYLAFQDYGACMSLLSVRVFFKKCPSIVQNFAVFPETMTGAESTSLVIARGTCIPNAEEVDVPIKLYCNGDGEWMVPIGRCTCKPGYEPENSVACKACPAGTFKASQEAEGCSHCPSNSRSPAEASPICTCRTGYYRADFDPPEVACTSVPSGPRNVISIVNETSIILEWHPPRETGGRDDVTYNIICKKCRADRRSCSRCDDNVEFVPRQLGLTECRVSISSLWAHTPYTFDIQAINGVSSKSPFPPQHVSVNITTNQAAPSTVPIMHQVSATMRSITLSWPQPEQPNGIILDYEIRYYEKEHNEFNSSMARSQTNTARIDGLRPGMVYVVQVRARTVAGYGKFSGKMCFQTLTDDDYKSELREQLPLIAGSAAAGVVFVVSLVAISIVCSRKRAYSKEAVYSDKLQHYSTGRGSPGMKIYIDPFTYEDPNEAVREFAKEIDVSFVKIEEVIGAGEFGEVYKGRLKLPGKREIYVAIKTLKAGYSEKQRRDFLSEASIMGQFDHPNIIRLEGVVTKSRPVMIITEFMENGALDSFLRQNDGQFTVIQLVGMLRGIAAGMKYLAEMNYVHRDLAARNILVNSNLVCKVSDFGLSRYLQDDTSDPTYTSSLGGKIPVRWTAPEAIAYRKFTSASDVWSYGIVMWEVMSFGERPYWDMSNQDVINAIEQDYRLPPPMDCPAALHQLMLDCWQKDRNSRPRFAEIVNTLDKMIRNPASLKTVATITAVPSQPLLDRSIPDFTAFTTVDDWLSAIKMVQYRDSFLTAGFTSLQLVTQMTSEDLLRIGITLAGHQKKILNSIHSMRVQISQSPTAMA

Aurora kinase C = target: T2, Aurora kinase C (Homo sapiens, UniProt Q9UQB9)
T2 sequence (Q9UQB9 whole entry): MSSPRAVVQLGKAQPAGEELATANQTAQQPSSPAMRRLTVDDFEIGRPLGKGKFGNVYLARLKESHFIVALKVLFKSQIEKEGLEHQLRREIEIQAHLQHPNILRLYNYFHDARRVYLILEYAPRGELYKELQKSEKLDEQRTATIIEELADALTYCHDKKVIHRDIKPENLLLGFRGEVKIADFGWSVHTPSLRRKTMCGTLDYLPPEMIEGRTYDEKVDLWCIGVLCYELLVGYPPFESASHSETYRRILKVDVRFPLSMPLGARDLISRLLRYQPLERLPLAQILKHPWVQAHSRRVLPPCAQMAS

Angiopoietin-1 receptor = Angiopoietin-1 receptor (Homo sapiens, UniProt Q02763)
Chain of Angiopoietin-1 receptor (Q02763 whole entry, canonical isoform): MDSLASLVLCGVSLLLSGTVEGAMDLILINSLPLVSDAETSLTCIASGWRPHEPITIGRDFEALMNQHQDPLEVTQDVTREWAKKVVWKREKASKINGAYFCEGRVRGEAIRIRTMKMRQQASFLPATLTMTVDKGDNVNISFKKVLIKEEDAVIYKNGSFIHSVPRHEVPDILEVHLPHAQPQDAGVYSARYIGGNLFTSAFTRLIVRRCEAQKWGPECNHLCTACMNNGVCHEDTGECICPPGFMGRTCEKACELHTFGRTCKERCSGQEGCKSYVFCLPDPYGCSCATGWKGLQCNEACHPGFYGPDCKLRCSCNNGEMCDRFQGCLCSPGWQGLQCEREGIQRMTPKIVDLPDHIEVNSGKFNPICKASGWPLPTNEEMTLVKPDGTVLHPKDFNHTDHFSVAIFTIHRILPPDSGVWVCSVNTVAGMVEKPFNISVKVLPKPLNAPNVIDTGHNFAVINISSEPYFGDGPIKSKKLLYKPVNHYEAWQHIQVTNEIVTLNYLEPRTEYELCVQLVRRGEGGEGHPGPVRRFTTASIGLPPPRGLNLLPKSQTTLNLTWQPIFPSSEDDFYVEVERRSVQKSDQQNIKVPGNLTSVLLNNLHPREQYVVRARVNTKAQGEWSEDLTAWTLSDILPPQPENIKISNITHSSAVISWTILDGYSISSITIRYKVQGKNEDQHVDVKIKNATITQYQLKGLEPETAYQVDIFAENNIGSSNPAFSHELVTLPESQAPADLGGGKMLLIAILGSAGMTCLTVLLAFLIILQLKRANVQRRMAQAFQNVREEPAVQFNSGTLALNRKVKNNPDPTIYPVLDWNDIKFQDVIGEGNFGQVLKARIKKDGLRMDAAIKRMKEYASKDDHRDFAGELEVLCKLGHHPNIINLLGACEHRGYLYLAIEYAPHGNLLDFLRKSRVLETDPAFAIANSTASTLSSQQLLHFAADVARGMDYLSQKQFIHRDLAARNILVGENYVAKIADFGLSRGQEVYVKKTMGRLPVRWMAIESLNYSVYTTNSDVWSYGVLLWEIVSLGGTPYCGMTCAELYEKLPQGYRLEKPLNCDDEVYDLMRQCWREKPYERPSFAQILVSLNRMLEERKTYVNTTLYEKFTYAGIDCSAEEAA

[1] = target: T3, Phosphorylase b kinase gamma catalytic chain, liver/testis isoform (Homo sapiens, UniProt P15735)
T3 sequence (P15735 whole entry): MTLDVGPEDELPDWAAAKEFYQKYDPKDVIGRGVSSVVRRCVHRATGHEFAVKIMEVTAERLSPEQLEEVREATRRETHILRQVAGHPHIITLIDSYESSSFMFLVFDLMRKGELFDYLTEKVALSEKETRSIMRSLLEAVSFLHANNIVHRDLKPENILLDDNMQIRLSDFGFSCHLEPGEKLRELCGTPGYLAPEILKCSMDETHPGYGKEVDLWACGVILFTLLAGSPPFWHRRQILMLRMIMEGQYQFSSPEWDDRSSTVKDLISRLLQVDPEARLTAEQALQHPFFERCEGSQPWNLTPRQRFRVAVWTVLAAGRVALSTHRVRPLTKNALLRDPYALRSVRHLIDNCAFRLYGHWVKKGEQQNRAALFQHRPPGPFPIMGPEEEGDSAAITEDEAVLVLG

Focal adhesion kinase 1 = Focal adhesion kinase 1 (Homo sapiens, UniProt Q05397)
Chain of Focal adhesion kinase 1 (Q05397 whole entry): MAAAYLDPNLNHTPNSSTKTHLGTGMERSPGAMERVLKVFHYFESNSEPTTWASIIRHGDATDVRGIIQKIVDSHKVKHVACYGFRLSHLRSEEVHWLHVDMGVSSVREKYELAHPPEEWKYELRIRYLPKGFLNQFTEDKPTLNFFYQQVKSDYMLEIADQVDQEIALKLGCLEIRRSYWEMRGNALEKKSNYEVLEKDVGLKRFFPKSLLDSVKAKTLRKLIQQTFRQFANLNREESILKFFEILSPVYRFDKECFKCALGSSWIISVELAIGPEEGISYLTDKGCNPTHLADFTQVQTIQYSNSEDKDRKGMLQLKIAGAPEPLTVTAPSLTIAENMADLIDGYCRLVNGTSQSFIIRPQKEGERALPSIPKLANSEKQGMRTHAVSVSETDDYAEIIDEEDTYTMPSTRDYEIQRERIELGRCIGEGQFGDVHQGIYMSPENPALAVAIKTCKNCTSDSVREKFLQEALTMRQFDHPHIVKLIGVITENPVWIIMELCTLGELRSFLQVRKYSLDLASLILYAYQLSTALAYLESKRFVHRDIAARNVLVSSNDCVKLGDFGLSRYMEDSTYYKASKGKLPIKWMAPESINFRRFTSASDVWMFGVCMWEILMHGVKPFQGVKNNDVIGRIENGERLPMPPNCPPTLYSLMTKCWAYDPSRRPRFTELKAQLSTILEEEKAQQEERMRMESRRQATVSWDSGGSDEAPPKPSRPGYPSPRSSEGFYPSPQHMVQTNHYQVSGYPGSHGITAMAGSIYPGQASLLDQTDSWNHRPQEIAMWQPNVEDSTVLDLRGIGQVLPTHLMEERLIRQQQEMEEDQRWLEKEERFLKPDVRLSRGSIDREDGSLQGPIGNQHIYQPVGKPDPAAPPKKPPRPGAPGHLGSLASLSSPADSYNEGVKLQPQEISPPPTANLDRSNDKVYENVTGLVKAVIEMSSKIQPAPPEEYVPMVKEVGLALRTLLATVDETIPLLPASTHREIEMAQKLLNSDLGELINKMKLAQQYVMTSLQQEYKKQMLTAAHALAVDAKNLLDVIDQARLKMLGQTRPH

[2] = target: T4, Membrane-associated tyrosine- and threonine-specific cdc2-inhibitory kinase (Homo sapiens, UniProt Q99640)
T4 sequence (Q99640 whole entry): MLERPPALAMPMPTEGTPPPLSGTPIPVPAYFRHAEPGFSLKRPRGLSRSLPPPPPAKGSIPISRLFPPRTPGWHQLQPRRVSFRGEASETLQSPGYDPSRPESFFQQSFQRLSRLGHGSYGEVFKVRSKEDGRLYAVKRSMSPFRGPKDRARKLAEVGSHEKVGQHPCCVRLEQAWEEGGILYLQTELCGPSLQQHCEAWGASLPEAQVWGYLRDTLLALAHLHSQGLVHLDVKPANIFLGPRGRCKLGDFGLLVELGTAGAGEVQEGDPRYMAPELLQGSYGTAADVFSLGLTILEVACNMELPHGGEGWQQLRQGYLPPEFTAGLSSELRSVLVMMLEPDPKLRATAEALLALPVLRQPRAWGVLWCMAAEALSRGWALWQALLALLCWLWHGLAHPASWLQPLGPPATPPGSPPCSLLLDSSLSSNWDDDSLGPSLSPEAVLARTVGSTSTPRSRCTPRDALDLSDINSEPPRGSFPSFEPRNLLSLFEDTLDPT

Measured: Kd

Chain of Activated CDC42 kinase 1 (Q07912 whole entry): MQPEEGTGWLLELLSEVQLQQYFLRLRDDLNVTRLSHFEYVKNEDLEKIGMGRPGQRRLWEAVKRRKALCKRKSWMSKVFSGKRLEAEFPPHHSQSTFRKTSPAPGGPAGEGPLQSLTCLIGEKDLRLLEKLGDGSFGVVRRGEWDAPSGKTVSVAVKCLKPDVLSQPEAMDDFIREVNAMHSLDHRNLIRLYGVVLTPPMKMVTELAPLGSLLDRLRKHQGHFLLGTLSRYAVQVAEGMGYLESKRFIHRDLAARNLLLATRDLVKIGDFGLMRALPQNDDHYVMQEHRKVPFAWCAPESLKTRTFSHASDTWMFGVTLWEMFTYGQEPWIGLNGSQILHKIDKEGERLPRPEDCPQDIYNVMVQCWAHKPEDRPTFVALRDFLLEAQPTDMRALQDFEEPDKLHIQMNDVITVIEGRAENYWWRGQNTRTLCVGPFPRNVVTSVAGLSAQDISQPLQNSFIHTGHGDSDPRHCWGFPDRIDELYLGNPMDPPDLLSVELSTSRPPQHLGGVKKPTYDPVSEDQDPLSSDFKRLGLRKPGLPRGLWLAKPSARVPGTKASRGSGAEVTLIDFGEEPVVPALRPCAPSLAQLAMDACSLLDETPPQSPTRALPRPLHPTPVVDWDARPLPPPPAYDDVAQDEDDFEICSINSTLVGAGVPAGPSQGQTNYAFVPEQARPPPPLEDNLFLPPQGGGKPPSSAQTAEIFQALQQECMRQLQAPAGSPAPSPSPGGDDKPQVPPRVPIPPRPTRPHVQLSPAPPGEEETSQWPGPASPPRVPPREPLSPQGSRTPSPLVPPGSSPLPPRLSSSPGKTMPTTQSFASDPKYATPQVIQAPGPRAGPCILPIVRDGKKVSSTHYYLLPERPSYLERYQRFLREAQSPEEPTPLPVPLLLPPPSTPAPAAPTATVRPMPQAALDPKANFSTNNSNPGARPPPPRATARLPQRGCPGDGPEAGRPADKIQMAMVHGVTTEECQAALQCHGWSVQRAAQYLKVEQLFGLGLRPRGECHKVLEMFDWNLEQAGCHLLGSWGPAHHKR

C#Cc1cccc(Nc2ncnc3cc(OCCOC)c(OCCOC)cc23)c1 [ERLOTINIB]
Not Active: Activated CDC42 kinase 1 | Ephrin type-B receptor 1 | Aurora kinase C | Angiopoietin-1 receptor | [1] | Focal adhesion kinase 1 | [2]

Cc1ccc(NC(=O)c2ccc(CN3CCN(C)CC3)cc2)cc1Nc1nccc(-c2cccnc2)n1 [IMATINIB]
Not Active: Activated CDC42 kinase 1 | Ephrin type-B receptor 1 | Aurora kinase C | Angiopoietin-1 receptor | [1] | Focal adhesion kinase 1 | [2]

O=c1ncn2nc(Sc3ccc(F)cc3F)ccc2c1-c1c(Cl)cccc1Cl [NEFLAMAPIMOD]
Not Active: Activated CDC42 kinase 1 | Aurora kinase C | Angiopoietin-1 receptor | [1] | Focal adhesion kinase 1 | [2]

CCOc1cc2ncc(C#N)c(Nc3ccc(F)c(Cl)c3)c2cc1NC(=O)/C=C/CN(C)C [PELITINIB]
Not Active: Aurora kinase C

Oc1ccc(-c2nc(-c3ccc(F)cc3)c(-c3ccncc3)[nH]2)cc1 [SB-202190]
Not Active: Activated CDC42 kinase 1 | Ephrin type-B receptor 1 | Aurora kinase C | Angiopoietin-1 receptor | [1] | Focal adhesion kinase 1 | [2]

C[S+]([O-])c1ccc(-c2nc(-c3ccc(F)cc3)c(-c3ccncc3)[nH]2)cc1 (centres undefined) [SB-203580]
Not Active: Activated CDC42 kinase 1 | Ephrin type-B receptor 1 | Aurora kinase C | Angiopoietin-1 receptor | [1] | Focal adhesion kinase 1 | [2]

CC[C@H](CO)Nc1nc(NCc2ccccc2)c2ncn(C(C)C)c2n1 [SELICICLIB]
Not Active: Activated CDC42 kinase 1 | Ephrin type-B receptor 1 | Aurora kinase C | Angiopoietin-1 receptor | [1] | Focal adhesion kinase 1 | [2]

Oc1c2ccccc2c2c3c(cccc13)N=N2 [SP-600125]
Not Active: Activated CDC42 kinase 1 | Ephrin type-B receptor 1 | Angiopoietin-1 receptor | Focal adhesion kinase 1 | [2]

COc1cc2c(N3CCN(C(=O)Nc4ccc(OC(C)C)cc4)CC3)ncnc2cc1OCCCN1CCCCC1 [TANDUTINIB]
Not Active: Activated CDC42 kinase 1 | Ephrin type-B receptor 1 | Aurora kinase C | Angiopoietin-1 receptor | [1] | Focal adhesion kinase 1 | [2]
